Reference: article PMC7614388, “Diversification in the inositol tris/tetrakisphosphate kinase (ITPK) family: crystal structure and enzymology of the outlier AtITPK4” (Biochemical Journal, 2023)

Experiments:
AtITPK1 = target: T1, AtITPK1 (Arabidopsis thaliana, UniProt Q9SBA5); test: phosphate release assay; assay type: biochemical; conditions: 1 mM ATP; 10 µM enzyme; no inositol phosphate
T1 construct: gene ITPK1; His tag with 3C cleavage implied
T1 sequence (Q9SBA5 1-319): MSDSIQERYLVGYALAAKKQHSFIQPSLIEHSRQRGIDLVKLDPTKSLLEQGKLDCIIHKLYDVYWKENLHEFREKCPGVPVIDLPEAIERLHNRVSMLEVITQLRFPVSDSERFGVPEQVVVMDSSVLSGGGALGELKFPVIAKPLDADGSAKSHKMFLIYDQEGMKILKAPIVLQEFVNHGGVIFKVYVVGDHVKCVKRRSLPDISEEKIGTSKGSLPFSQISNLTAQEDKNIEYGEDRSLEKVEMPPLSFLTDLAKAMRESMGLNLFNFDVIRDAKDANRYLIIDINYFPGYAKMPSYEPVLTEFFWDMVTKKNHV

AtITPK4 = target: T2, AtITPK4 (Arabidopsis thaliana, UniProt O80568); test: HPLC kinase assay, substrate inhibition fit; assay type: biochemical; conditions: 1 mM Ins(1,4,6)P3; ATP 0-5 mM; 6 mM MgCl2; 20 mM HEPES pH 7.3; 25 °C; 3 µM enzyme; substrate inhibition at high ATP
T2 construct: gene ITPK4; full-length; pOPINE, non-cleavable C-terminal 6xHis tag kept; Ni-NTA purified; HAD-like domain 1-150, ATP-grasp kinase domain from 151; no evidence of homo-oligomers
T2 sequence (O80568 whole entry, the tested form may be a part): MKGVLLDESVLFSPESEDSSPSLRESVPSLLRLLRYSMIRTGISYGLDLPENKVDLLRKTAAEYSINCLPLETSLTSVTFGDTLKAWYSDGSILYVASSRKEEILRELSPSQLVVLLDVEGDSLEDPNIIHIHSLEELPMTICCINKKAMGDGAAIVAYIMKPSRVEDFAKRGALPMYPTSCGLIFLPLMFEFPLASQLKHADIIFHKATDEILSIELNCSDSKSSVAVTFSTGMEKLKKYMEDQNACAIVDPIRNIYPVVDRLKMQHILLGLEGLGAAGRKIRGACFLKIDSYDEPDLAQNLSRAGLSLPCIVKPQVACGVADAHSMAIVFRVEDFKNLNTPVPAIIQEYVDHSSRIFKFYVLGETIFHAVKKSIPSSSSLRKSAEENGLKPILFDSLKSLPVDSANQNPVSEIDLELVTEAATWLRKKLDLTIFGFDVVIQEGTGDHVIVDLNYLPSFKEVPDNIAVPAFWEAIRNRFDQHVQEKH

Ki (AtITPK4): 3.3 mM
SMILES: Nc1ncnc2c1ncn2[C@@H]1O[C@H](COP(=O)(O)OP(=O)(O)OP(=O)(O)O)[C@@H](O)[C@H]1O [ATP]
phosphate release assay (AtITPK1): AtITPK1 showed much greater phosphate release from ATP in the absence of inositol phosphate substrate
